Values after ≈ are worked out from the molar mass of the structure shown. Residues, ends and D or L forms follow the SMILES beside them.
Columns and labels:
[1] = AUC (0 to 6 hrs) in C57BL/6J mouse at 5 mg/kg, ip; type: ADME, organism-based; set-up: dose 5 mg/kg, time < 6 hr, route intraperitoneal; settings: in vivo
[2] = system: Mus musculus; assay: Toxicity in C57BL/6J mouse assessed as behavioral changes at 5 to 25 mg/kg, ip by Irwin test; type: organism-based; settings: in vivo
[3] = Intrinsic clearance in human liver microsomes at […] pretreated for 45 mins followed by NADPH addition by LC-MS/MS analysis; type: ADME, microsome
[4] = AUC (0 to 6 hrs) in C57BL/6J mouse at 25 mg/kg, ip; type: ADME, organism-based; set-up: dose 25 mg/kg, time < 6 hr, route intraperitoneal; settings: in vivo
[5] = system: Mycobacterium tuberculosis; assay: Antimycobacterial activity against Mycobacterium tuberculosis H37Rv infected in human THP1 cells treated prior to infection measured after 4 days by luciferase reporter gene assay; type: functional, organism-based; settings: THP-1, 96 h
[6] = system: Mus musculus; assay: Dose normalized AUC (0 to 6 hrs) in C57BL/6J mouse at 5 mg/kg, ip; type: ADME, organism-based; settings: in vivo
[7] = system: Mycobacterium tuberculosis; assay: Antimycobacterial activity against Mycobacterium tuberculosis H37Rv infected in C57BL/6J mouse assessed as log10 CFU reduction in bacterial lung count at 5 mg/kg, ip administered once daily for 8 days measured post last dose relative to control; type: functional
[8] = Cmax in C57BL/6J mouse at 25 mg/kg, ip; type: ADME, organism-based; set-up: dose 25 mg/kg, route intraperitoneal; settings: in vivo
[9] = Intrinsic clearance in mouse liver microsomes at […] pretreated for 45 mins followed by NADPH addition by LC-MS/MS analysis; type: ADME, microsome
[10] = system: HepG2; assay: Cytotoxicity against human HepG2 cells after 48 hrs by CellTiter-Glo luminescence assay; type: cell-based; settings: HepG2, 48 h
[11] = system: Mus musculus; assay: Dose normalized AUC (0 to 6 hrs) in C57BL/6J mouse at 25 mg/kg, ip; type: ADME, organism-based; settings: in vivo
[12] = Cmax in C57BL/6J mouse at 5 mg/kg, ip; type: ADME, organism-based; set-up: dose 5 mg/kg, route intraperitoneal; settings: in vivo
[13] = system: Mus musculus; assay: Toxicity in C57BL/6J mouse assessed as body weight loss at 25 mg/kg, ip after 24 hrs by Irwin test; type: organism-based; settings: in vivo
[14] = Kinetic aqueous solubility of the compound at pH 7.4 phosphate buffered saline after 1 hr by CLND method; type: physicochemical; settings: read-out: Kinetic_solubility
[15] = system: Mycobacterium tuberculosis; assay: Antimycobacterial activity against Mycobacterium tuberculosis H37Rv incubated for 6 days under shaking condition by resazurin dye based fluorescence assay; type: functional; settings: 144 h
[16] = Permeability of the compound by PAMPA; type: ADME; settings: read-out: permeability
[17] = Intrinsic clearance in mouse liver microsomes; type: ADME, microsome
[18] = Intrinsic clearance in human liver microsomes; type: ADME, microsome
[19] = Permeability of the compound at pH 7.4 at […] incubated for 3 hrs under shaking condition by HPLC method; type: ADME; settings: not told, read-out: permeability
[20] = Kinetic aqueous solubility of the compound by charged aerosol detection method; type: physicochemical; settings: buffer; read-out: Kinetic_solubility
[21] = Kinetic aqueous solubility of the compound by CLND method; type: physicochemical; settings: buffer; read-out: Kinetic_solubility
[22] = system: Mycobacterium tuberculosis; assay: Antimycobacterial activity against Mycobacterium tuberculosis H37Rv infected in C57BL/6J mouse assessed as log10 CFU reduction in bacterial lung count at 30 mg/kg, po administered once daily for 8 days measured post last dose relative to control; type: functional

Structure (SMILES) | CLH [3] [mL/min/g] | IC50 [5] [µM] | IC50 [10] [µM] | solubility kinetic at 1 h [14] [µM] | MIC [15] [µM] | Papp [16] [nm/s] | CLH [17] [mL/min/g] | CLH [18] [mL/min/g] | solubility kinetic [20] [µM] | further results
CC[C@H](C)[C@@H]1NC(=O)[C@@H](CC(C)C)NC(=O)[C@H](CC(C)C)NC(=O)[C@H](Cc2c[nH]c3ccccc23)NC(=O)[C@@H](CCCNC(=N)N)NC(=O)[C@H](CC(N)=O)NC1=O (HELM PEPTIDE1{I.N.[dR].W.L.[dL]}$PEPTIDE1,PEPTIDE1,1:R1-6:R2$$$V2.0) | 7.44 | 0.2 | 50.1 | > 238 | 0.6 (≈ 0.478 µg/mL) | – | – | – | – | AUC(0-t) at 6 h [1]: 6.29 µg·h/mL; Activity [2]: Non-Toxic; AUC(0-t) at 6 h [4]: 14.7 µg·h/mL; AUC/dose [6]: 1258.6 ng·h/mL/mg/kg; FC [7]: -0.2; Cmax [8]: 3.26 µg/mL; CLH [9]: 1.01 mL/min/g; AUC/dose [11]: 586.1 ng·h/mL/mg/kg; Cmax [12]: 1.47 µg/mL; Activity [13]: 10%
CC(C)C[C@@H]1NC(=O)[C@H](Cc2c[nH]c3ccccc23)NC(=O)[C@@H](CCCN)NC(=O)[C@H](CC(=O)N2CCC(Oc3ccc(OC(F)(F)F)cc3)CC2)NC(=O)[C@H](C(C)C)NC(=O)[C@@H](CC(C)C)NC1=O | – | – | 31.6 | 20 (≈ 19.7 µg/mL) | > 80 | 87 | < 0.48 | 0.4 | – | –
CC(C)C[C@@H]1NC(=O)[C@H](Cc2c[nH]c3ccccc23)NC(=O)[C@@H](CCCN)NC(=O)[C@H](CC(=O)NC2CCCCC2)NC(=O)[C@H](C(C)C)NC(=O)[C@@H](CC(C)C)NC1=O | – | – | 50.1 | – | 5 (≈ 4.11 µg/mL) | – | – | – | – | –
CC[C@H](C)[C@@H]1NC(=O)[C@@H](CC(C)C)NC(=O)[C@H](CC(C)C)NC(=O)[C@H](Cc2c[nH]c3ccccc23)NC(=O)[C@@H](CCCN)NC(=O)[C@H](CC(N)=O)NC1=O | 1.87 | 0.8 | 50.1 | > 235 | 1.1 (≈ 0.829 µg/mL) | – | < 0.48 | – | – | AUC(0-t) at 6 h [1]: 4.79 µg·h/mL; Activity [2]: Non-Toxic; AUC(0-t) at 6 h [4]: 26.6 µg·h/mL; Papp at 3 h [19]: < 10 nm/s; AUC/dose [6]: 957 ng·h/mL/mg/kg; FC [7]: -0.2; Cmax [8]: 6.33 µg/mL; AUC/dose [11]: 1063.8 ng·h/mL/mg/kg; Cmax [12]: 2.17 µg/mL; Activity [13]: 10%
CCCCNC(=O)C[C@@H]1NC(=O)[C@H](C(C)C)NC(=O)[C@@H](CC(C)C)NC(=O)[C@H](CC(C)C)NC(=O)[C@H](Cc2c[nH]c3ccccc23)NC(=O)[C@@H](CCCN)NC1=O | – | – | 63.1 | – | 10 (≈ 7.96 µg/mL) | < 10 | 1.19 | 1.69 | 146 (≈ 116 µg/mL) | –
CC[C@@H](C)[C@@H]1NC(=O)[C@@H](CC(C)C)NC(=O)[C@H](CC(C)C)NC(=O)[C@H](Cc2c[nH]c3ccccc23)NC(=O)[C@@H](CCCN)NC(=O)[C@H](CC(N)=O)NC1=O | – | 0.8 | 50.1 | – | 1.1 (≈ 0.829 µg/mL) | < 10 | < 0.48 | 0.87 | – | solubility kinetic [21]: 177 µM (≈ 133 µg/mL)
CC(C)C[C@@H]1NC(=O)[C@H](Cc2c[nH]c3ccccc23)NC(=O)[C@@H](CCCN)NC(=O)[C@H](CC(N)=O)NC(=O)[C@H](C(C)C)NC(=O)[C@@H](CC(C)C)NC1=O (HELM PEPTIDE1{[NCCC[C@@H](N[*:1])C(=O)[*:2]].W.L.[dL].V.N}$PEPTIDE1,PEPTIDE1,1:R1-6:R2$$$V2.0) | 0.97 | 1.26 | 50.1 | 204 (≈ 151 µg/mL) | 0.6 (≈ 0.444 µg/mL) | – | – | – | – | Papp at 3 h [19]: < 6.5 nm/s; CLH [9]: < 0.5 mL/min/g
COc1c(N2C[C@@H]3CCCN[C@@H]3C2)c(F)cc2c(=O)c(C(=O)O)cn(C3CC3)c12 [MOXIFLOXACIN] | – | – | – | – | – | – | – | – | – | FC [22]: 3.4
CC(C)C[C@@H]1NC(=O)[C@H](Cc2c[nH]c3ccccc23)NC(=O)[C@@H](CCCN)NC(=O)[C@H](CC(=O)N2CCCCC2)NC(=O)[C@H](C(C)C)NC(=O)[C@@H](CC(C)C)NC1=O | – | – | > 100 | – | 20 (≈ 16.2 µg/mL) | < 10 | < 0.48 | 1.9 | 107 (≈ 86.5 µg/mL) | –
CC(C)C[C@@H]1NC(=O)[C@H](Cc2c[nH]c3ccccc23)NC(=O)[C@@H](CCCN)NC(=O)[C@H](CC(=O)NCc2ccccc2)NC(=O)[C@H](C(C)C)NC(=O)[C@@H](CC(C)C)NC1=O | – | – | 39.8 | – | 10 (≈ 8.3 µg/mL) | < 10 | 0.73 | 0.88 | > 353 | –

— ChEMBL document CHEMBL4229459, “An efficient synthetic route for preparation of antimycobacterial wollamides and evaluation of their in vitro and in vivo efficacy” (Bioorg Med Chem Lett, 2018)
